Results taken from paper PMC8777764, “Design, Synthesis, Biological Evaluation, and Molecular Modeling of 2-Difluoromethylbenzimidazole Derivatives as Potential PI3Kα Inhibitors” (Molecules, 2022).

Biological target: T1, PI3Kα (Homo sapiens, UniProt P42336)
T1 construct: gene PIK3CA
Experiment: Kinase-Glo Plus luminescence kinase assay, […] ATP
Assay type: biochemical

T1 sequence (P42336 whole entry): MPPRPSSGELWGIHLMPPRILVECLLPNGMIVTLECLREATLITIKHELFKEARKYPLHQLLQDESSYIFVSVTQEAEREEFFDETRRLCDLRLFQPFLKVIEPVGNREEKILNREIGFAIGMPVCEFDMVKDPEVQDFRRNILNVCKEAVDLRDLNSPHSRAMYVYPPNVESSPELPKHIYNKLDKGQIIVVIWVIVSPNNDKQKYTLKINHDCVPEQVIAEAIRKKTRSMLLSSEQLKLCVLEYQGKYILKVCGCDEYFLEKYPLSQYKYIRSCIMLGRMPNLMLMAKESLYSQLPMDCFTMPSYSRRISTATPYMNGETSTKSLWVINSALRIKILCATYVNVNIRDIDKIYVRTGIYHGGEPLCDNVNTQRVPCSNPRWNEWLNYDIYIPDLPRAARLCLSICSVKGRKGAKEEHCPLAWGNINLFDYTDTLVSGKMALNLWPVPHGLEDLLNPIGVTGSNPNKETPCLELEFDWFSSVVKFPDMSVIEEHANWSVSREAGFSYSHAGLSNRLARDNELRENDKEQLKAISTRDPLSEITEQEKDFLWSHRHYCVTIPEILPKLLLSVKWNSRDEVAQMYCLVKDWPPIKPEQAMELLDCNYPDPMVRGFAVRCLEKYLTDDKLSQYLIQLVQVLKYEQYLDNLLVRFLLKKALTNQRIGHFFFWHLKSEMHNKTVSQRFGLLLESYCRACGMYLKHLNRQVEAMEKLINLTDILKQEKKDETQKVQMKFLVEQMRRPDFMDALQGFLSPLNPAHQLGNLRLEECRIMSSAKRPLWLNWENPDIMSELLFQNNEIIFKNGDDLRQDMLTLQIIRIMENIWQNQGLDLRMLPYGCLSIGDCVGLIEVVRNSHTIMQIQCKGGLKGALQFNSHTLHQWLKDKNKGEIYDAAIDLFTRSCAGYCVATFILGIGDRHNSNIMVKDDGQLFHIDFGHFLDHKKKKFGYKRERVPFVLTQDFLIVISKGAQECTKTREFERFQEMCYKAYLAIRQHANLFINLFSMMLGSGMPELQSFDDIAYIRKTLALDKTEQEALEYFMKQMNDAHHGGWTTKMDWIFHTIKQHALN

`COc1cccc2c1nc(C(F)(F)F)n2-c1nc(N2CCOCC2)nc(N(C)C2CCN(S(C)(=O)=O)CC2)n1` [compound 86, 4-(4-Methoxy-2-(trifluoromethyl)-1H-benzo[d]imidazol-1-yl)-N-methyl-N-(1-(methylsulfonyl)piperidin-4-yl)-6-morpholino-1,3,5-triazin-2-amine] was tested, and the IC50 was 22.8 ± 0.4 nM.

With `CCOc1cccc2c1nc(C(F)(F)F)n2-c1nc(N2CCOCC2)nc(N(C)C2CCN(S(C)(=O)=O)CC2)n1` [compound 87, 4-(4-Ethoxy-2-(trifluoromethyl)-1H-benzo[d]imidazol-1-yl)-N-methyl-N-(1-(methylsulfonyl)piperidin-4-yl)-6-morpholino-1,3,5-triazin-2-amine] the IC50 was 33.6 ± 2.7 nM.
